# Test results from ChEMBL document CHEMBL5512645, “A novel antimicrobial peptide with broad-spectrum and exceptional stability derived from the natural peptide Brevicidine” (Eur J Med Chem, 2024).
# The source made the active and inactive calls. No cut-off for these calls is given here. Bridge positions count the residues as written; N and C are the ends. Square brackets hold non-standard residues; d marks the D form. Peptide text beside a SMILES is read from it. * marks the point of attachment. ξ: configuration not given here. Hexanoyl(4ξ-Me) = CCC(C)CCC(=O)*; dOrn = NCCC[C@@H](N)C(=O)O; Orn = NCCC[C@H](N)C(=O)O
# Columns and labels:
# [1] = Half life in mouse serum by RP-HPLC analysis; assay type: ADME, cell-free
# [2] = test system: Staphylococcus aureus; test: Antibacterial activity against Staphylococcus aureus ATCC 25923 pretreated with 2.5% mouse serum followed by compound addition and measured after 1 hr by broth microdilution method (reference value: 8 microM); assay type: functional
# [3] = test system: Staphylococcus aureus; test: Antibacterial activity against Staphylococcus aureus ATCC 25923 pretreated with 2.5% mouse serum followed by compound addition and measured after 6 hrs by broth microdilution method (reference value: 8 microM); assay type: functional
# [4] = test system: Staphylococcus aureus; test: Antibacterial activity against Staphylococcus aureus ATCC 25923 pretreated with 5% mouse serum followed by compound addition and measured after 6 hrs by broth microdilution method (reference value: 8 microM); assay type: functional
# [5] = test system: Staphylococcus aureus; test: Antibacterial activity against Staphylococcus aureus ATCC 25923 pretreated with Kcl followed by compound addition and measured after 2 hrs by broth microdilution method (reference value: 8 microM); assay type: functional
# [6] = test system: Pseudomonas aeruginosa; test: Antibacterial activity against Pseudomonas aeruginosa ATCC 27853 assessed as reduction in survival bacterial growth in presence of trypsin measured after 8 hrs by absorbance based analysis; assay type: functional, organism-based
# [7] = test system: Staphylococcus aureus; test: Bactericidal activity against Staphylococcus aureus ATCC 25923 assessed as assessed as eradication of bacterial cells at 1/2 times MIC measured after 6 hrs by time killing analysis; assay type: functional, organism-based
# [8] = test system: Cell membrane; test: Induction of outer membrane permeabilization in Pseudomonas aeruginosa ATCC 27853 assessed increase in fluorescence intensity at 1/2 to 4 times MIC measured upto 12 mins by fluorescence based NPN uptake assay; assay type: cell membranes
# [9] = test system: Pseudomonas aeruginosa; test: Induction of morphological changes in Pseudomonas aeruginosa ATCC 27853 assessed as adhesion at 2 times MIC measured after 0.5 hrs by SEM based analysis; assay type: functional, organism-based
# [10] = test system: Staphylococcus aureus; test: Induction of morphological changes in Staphylococcus aureus ATCC 25923 assessed as increase in volume of swelling at 2 times MIC measured after 2 hrs by SEM based analysis; assay type: functional, organism-based
# [11] = test system: Staphylococcus aureus; test: In vivo antibacterial activity against Staphylococcus aureus ATCC 25923 infected in BALB/c mouse model assessed as reduction in bacterial count in spleen at 10 mg/kg, ip preadministered with compound for 1 hr followed by bacterial infection and measured after 6 hrs […]; assay type: functional, organism-based; settings: time 7.0 hrs
# [12] = test system: Staphylococcus aureus; test: In vivo antibacterial activity against Staphylococcus aureus ATCC 25923 infected in BALB/c mouse model assessed as reduction in bacterial count in kidney at 10 mg/kg, ip preadministered with compound for 1 hr followed by bacterial infection and measured after 6 hrs […]; assay type: functional, organism-based; settings: time 7.0 hrs
# [13] = test system: Staphylococcus aureus; test: In vivo antibacterial activity against Staphylococcus aureus ATCC 25923 infected in BALB/c mouse model assessed as amelioration of pathological changes in liver at 5 to 10 mg/kg, ip measured after 7 hrs by H and E staining based analysis; assay type: functional, organism-based; settings: dose 5-10 mg/kg
# [14] = test system: Staphylococcus aureus; test: In vivo antibacterial activity against Staphylococcus aureus ATCC 25923 infected in BALB/c mouse model assessed as amelioration of pathological changes in spleen at 5 to 10 mg/kg, ip measured after 7 hrs by H and E staining based analysis; assay type: functional, organism-based; settings: dose 5-10 mg/kg
# [15] = test system: Staphylococcus aureus; test: In vivo antibacterial activity against Staphylococcus aureus ATCC 25923 infected in BALB/c mouse model assessed as amelioration of pathological changes in kidney at 5 to 10 mg/kg, ip measured after 7 hrs by H and E staining based analysis; assay type: functional, organism-based; settings: dose 5-10 mg/kg
# [16] = test system: Staphylococcus aureus; test: Antibacterial activity against Staphylococcus aureus ATCC 25923 assessed as fold increase in MIC pretreated with KCl followed by compound addition and measured after 2 hrs by broth microdilution method; assay type: functional
# [17] = test system: Pseudomonas aeruginosa; test: Antibacterial activity against Pseudomonas aeruginosa ATCC 27853 assessed as fold increase in MIC pretreated with FeCl3 followed by compound addition and measured after 2 hrs by broth microdilution method; assay type: functional
# [18] = test system: Pseudomonas aeruginosa; test: Antibacterial activity against Pseudomonas aeruginosa ATCC 27853 assessed as fold increase in MIC pretreated with ZnCl2 followed by compound addition and measured after 2 hrs by broth microdilution method; assay type: functional
# [19] = test system: Staphylococcus aureus; test: Antibacterial activity against Staphylococcus aureus ATCC 25923 pretreated with 10% mouse serum followed by compound addition and measured after 1 hr by broth microdilution method (reference value: 64 microM); assay type: functional
# [20] = test system: Staphylococcus aureus; test: Antibacterial activity against Staphylococcus aureus ATCC 25923 pretreated with 20% mouse serum followed by compound addition and measured after 1 hr by broth microdilution method (reference value: 64 microM); assay type: functional
# [21] = test system: Staphylococcus aureus; test: Antibacterial activity against Staphylococcus aureus ATCC 25923 pretreated with 2.5% mouse serum followed by compound addition and measured after 6 hrs by broth microdilution method (reference value: 64 microM); assay type: functional
# [22] = test system: Cell membrane; test: Induction of cytoplasmic membrane depolarization in Staphylococcus aureus ATCC 25923 assessed as increase in fluorescence intensity at 1/2 to 4 times MIC measured within 1 min by DiSC3-5 dye based fluorescence method; assay type: cell membranes
# [23] = test system: Pseudomonas aeruginosa; test: Induction of morphological changes in Pseudomonas aeruginosa ATCC 27853 assessed as leakage of cellular content at 2 times MIC measured after 0.5 hrs by SEM based analysis; assay type: functional, organism-based
# [24] = test system: Pseudomonas aeruginosa; test: Induction of morphological changes in Pseudomonas aeruginosa ATCC 27853 assessed as membrane rupture at 2 times MIC measured after 2 hrs by SEM based analysis; assay type: functional, organism-based
# [25] = test system: Pseudomonas aeruginosa; test: Antibacterial activity against Pseudomonas aeruginosa ATCC 27853 assessed as fold increase in MIC pretreated with 2.5 to 20% mouse serum followed by compound addition and measured after 1 hr by broth microdilution method; assay type: functional
# [26] = test system: Staphylococcus aureus; test: Antibacterial activity against Staphylococcus aureus ATCC 25923 assessed as fold increase in MIC pretreated with 2.5 to 20% mouse serum followed by compound addition and measured after 6 hr by broth microdilution method; assay type: functional
# [27] = test system: Staphylococcus aureus; test: Antibacterial activity against Staphylococcus aureus ATCC 25923 assessed as fold increase in MIC pretreated with Na-cl followed by compound addition and measured after 2 hrs by broth microdilution method; assay type: functional
# [28] = test system: Staphylococcus aureus; test: Antibacterial activity against Staphylococcus aureus ATCC 25923 pretreated with 20% mouse serum followed by compound addition and measured after 1 hr by broth microdilution method (reference value: 16 microM); assay type: functional, organism-based
# [29] = test system: Staphylococcus aureus; test: Antibacterial activity against Staphylococcus aureus ATCC 25923 pretreated with 10% mouse serum followed by compound addition and measured after 6 hrs by broth microdilution method (reference value: 16 microM); assay type: functional, organism-based
# [30] = test system: Staphylococcus aureus; test: Antibacterial activity against Staphylococcus aureus ATCC 25923 pretreated with Kcl followed by compound addition and measured after 2 hrs by broth microdilution method (reference value: 16 microM); assay type: functional, organism-based
# [31] = test system: Staphylococcus aureus; test: Antibacterial activity against Staphylococcus aureus ATCC 25923 pretreated with ZnCl2 followed by compound addition and measured after 2 hrs by broth microdilution method (reference value: 16 microM); assay type: functional, organism-based
# [32] = test system: Pseudomonas aeruginosa; test: Bactericidal activity against Pseudomonas aeruginosa ATCC 27853 assessed as assessed as eradication of bacterial cells at 2 to 4 times MIC measured after 0.5 hr by time killing analysis relative to control; assay type: functional, organism-based
# [33] = test system: Cell membrane; test: Induction of outer membrane permeabilization in Pseudomonas aeruginosa ATCC 27853 assessed increase in fluorescence intensity measured after 12 mins by fluorescence based NPN uptake assay; assay type: cell membranes
# [34] = test system: Cell membrane; test: Induction of cytoplasmic membrane depolarization in Staphylococcus aureus ATCC 25923 assessed as increase in fluorescence intensity at 4 times MIC measured upto 12 min by DiSC3-5 dye based fluorescence method; assay type: cell membranes
compound,measurement,setting,value
CCCCCCCCCC(=O)N[C@H](CCCN)C(=O)N[C@H](Cc1ccc(O)cc1)C(=O)N[C@H](Cc1c[nH]c2ccccc12)C(=O)N[C@H](CCCN)C(=O)N[C@@H](CCCN)C(=O)NCC(=O)N[C@H](CCCN)C(=O)N[C@@H](Cc1c[nH]c2ccccc12)C(=O)N[C@H](C(=O)N[C@H](C(=O)NCC(=O)N[C@@H](CO)C(=O)O)[C@@H](C)CC)[C@@H](C)O,half-life,[1],41 h
same,MIC,[2],16 µM
same,MIC,[3],16 µM
same,MIC,[4],16 µM
same,MIC,[5],8 µM
same,Activity,[6],Active
same,Activity,[7],Active
same,Activity,[8],inactive
same,Activity,[9],Active
same,Activity,[10],Active
same,Activity,[11],Active
same,Activity,[12],Active
same,Activity,[13],Active
same,Activity,[14],Active
same,Activity,[15],Active
same,fold change (FC),[16],2
same,fold change (FC),[17],8
same,fold change (FC),[18],8
CCC(C)CCC(=O)N[C@H](CC(N)=O)C(=O)N[C@H](Cc1ccc(O)cc1)C(=O)N[C@H](Cc1c[nH]c2ccccc12)C(=O)N[C@H](CCCN)C(=O)N[C@@H](CCCN)C(=O)NCC(=O)N[C@H](CCCN)C(=O)N[C@@H](Cc1c[nH]c2ccccc12)C(=O)N[C@@H]1C(=O)N[C@@H]([C@@H](C)CC)C(=O)NCC(=O)N[C@@H](CO)C(=O)O[C@@H]1C (stereo not given in full) ({Hexanoyl(4ξ-Me)}-[dN][dY][dW][dOrn][Orn]G[dOrn]WTIGS; ester 9-C),half-life,[1],4.47 h
same,MIC,[19],64 µM
same,MIC,[20],128 µM
same,MIC,[21],128 µM
same,Activity,[6],Active
same,Activity,[22],Active
same,Activity,[23],Active
same,Activity,[24],Active
same,fold change (FC),[25],2
same,fold change (FC),[26],2
same,fold change (FC),[27],2
same,fold change (FC),[17],2
same,fold change (FC),[18],2
POLYMYXIN B,MIC,[28],16 µM
same,MIC,[29],16 µM
same,MIC,[30],8 µM
same,MIC,[31],32 µM
same,Activity,[32],100%
same,Activity,[33],Dose-Dependent Effect
same,Activity,[34],inactive
same,Activity,[23],Active
same,Activity,[24],Active
same,Activity,[11],Active
same,Activity,[12],Active
same,Activity,[13],Active
same,Activity,[14],Active
same,Activity,[15],Active
